This note sets out measurements from article PMC12472621, “Excavating Precursors from Herb Pairs Polygala tenuifolia and Acori tatarinowii: Synthesis and Anticonvulsant Activity Evaluation of 3,4,5-Trimethoxycinnamic Acid (TMCA) Piperazine Amide Derivatives” (Pharmaceuticals, 2025).

Where two headings read alike, the source gives them in different places.

The test system of data set [1] is maximal electroshock (MES) induced seizures. Kind of data set: Maximal electroshock (MES) test. The settings on record: Mus musculus, ip, mice; for responders at 100 mg/kg: 100 mg/kg i.p.; for ED50: 95% confidence intervals in parentheses. Format: in vivo, mice. The text has this: (§1) Male Kunming mice (23–28 g) were maintained under controlled conditions with ad libitum access to standard pellet diet and water. Test compounds were formulated immediately prior to administration in normal saline containing 0.5% Tween-80. Our experiment was authorized by the Institutional Animal Care and Use Committee of Shaanxi University of Chinese Medicine (animal ethics certificate number: SUCMDL20210309027).
The MES test carried out following the method of Swinyard. A 60 Hz current (50 mA; 0.25 s duration) was delivered via corneal electrodes using a YSD-4G electro convulsion meter (Zhenghua Instruments, Huaibei, China, SN: ZH0056232). […] Test compounds were suspended in an identical vehicle. Protection was defined as abolition of tonic hindlimb extension.
On the technique in general: The maximal electroshock test induces tonic seizures with an electrical stimulus.

The subject of a further data set is scPTZ-induced seizures. Kind of data set: Pentylenetetrazole (PTZ)-induced seizure test (scPTZ). In kind it is in vivo. The following applies: 100 mg/kg i.p., PTZ 85 mg/kg s.c., mice. The method, then:
as §1
Seizures were induced by subcutaneous (s.c.) administration of PTZ (85 mg/kg in 1% v/v Tween-80/0.9% NaCl), 30 min after compound treatment. This dose produces clonic seizures (≥5 s duration) in 97% of naive mice. Latency to seizure onset was recorded during continuous observation.

The next data set concerns LDH enzyme. As to the kind of experiment: In vitro LDH assay. Format: biochemical. On the procedure:
Employing the commercial LDH enzyme (Solarbio Life Science, Beijing, China, CAS:9001-60-9, Lot. Document No. 14240222001) includes a colorimetric assay kit designed to assess the synthesized substances’ capacity to suppress the LDH enzyme, using established techniques with slight alterations. In summary, a 96-well microplate was filled with 30 μL of LDH enzyme (300 U/mL) and 70 μL of the inhibitor mixture (0.1 mM in final concentration). Following a 10 min pre-incubation process at ambient temperature, […] of NADH (0.2 mM) was introduced. Subsequently, each well received 40 μL of phosphate buffer (20 mM, pH 6.8), reaching a total volume of 250 μL, followed by a 10 min incubation of the assay plate at 28 °C. Subsequently, […] absorbance was gauged at 340 nm utilizing a SpectraMax 190 Absorbance Microplate Reader (Molecular Devices, San Jose, CA, USA). […] In the initial screening, the level of suppression by the test substances was denoted as a percentage (%). The calculation for the LDH inhibition ratio was as follows:Inhibition (%) = [(Asample − Ablank)/Acontrol] × 100%
Asample denotes the OD340 absorbance of test compound and Ablank is the OD340 absorbance for the blank. Acontrol represents the OD340 absorbance of control.

Data set [2] is described as follows: Acute neurotoxicity screening (rotarod test). In kind it is in vivo, mice. The settings on record: male, Kunming, mouse, in vivo, ip, 30 min post-administration, 95% confidence intervals in parentheses. The method, then: as §1
Neurotoxicity was assessed via a rotarod test. Mice were trained to maintain balance on a rotating rod (diameter: 4 cm; 24 rpm). Trained animals received i.p. injections of test compounds or reference drugs. At 30 min post-administration, neurologic impairment was defined as failure to remain on the rod for 3 min (≥3 falls within the testing period). Data were used to calculate TD50 values.

[3] abbreviates: 0.5 h, read-out: MES model, protected mice/total mice, 0.5 h (converted).
Setting [4] is: 1 h, read-out: MES model, protected mice/total mice, 1 h (converted).
[5] abbreviates: 2 h, read-out: MES model, protected mice/total mice, 2 h (converted).
Setting [6] is: 3 h, read-out: MES model, protected mice/total mice, 3 h (converted).

Consider `COc1ccccc1N1CCN(C(=O)CCC(=O)N2CCN(C(=O)/C=C/c3cc(OC)c(OC)c(OC)c3)CC2)CC1` [B15, (E)-1-(4-(2-methoxyphenyl)piperazin-1-yl)-4-(4-(3-(3,4,5-trimethoxyphenyl)acryloyl)piperazin-1-yl)butane-1,4-dione], for which the responders at 100 mg/kg in data set [1] (setting [3]) was 75%; in data set [1] (setting [4]) it was 75%; in data set [1] (setting [5]), 25%; in data set [1] (setting [6]), 0%.

One may read the ED50 as the dose at which the effect has come halfway, by size or by number of responders. As usually defined, the TD50 is the 50% point of the dose-response relation for the toxic effect studied. For `COc1cc(/C=C/C(=O)N2CCN(CCCC(=O)N3CCN(c4ccc(C(F)(F)F)cc4)CC3)CC2)cc(OC)c1OC` [A14, (E)-1-(4-(4-(trifluoromethyl)phenyl)piperazin-1-yl)-4-(4-(3-(3,4,5-trimethoxyphenyl)acryloyl)piperazin-1-yl)butan-1-one], the responders at 100 mg/kg in data set [1] (setting [3]) was 100%; in data set [1] (setting [4]), 100%; in data set [1] (setting [5]), 75%; in data set [1] (setting [6]), 25%. In addition, in data set [1], the ED50 was determined as 52.4 mg/kg. Also, the “SCPTZ Latent Time (100 mg/kg, s)” value in the data set with scPTZ-induced seizures is on record as 233.5 ± 18.3 s. The “SCPTZ Protective Ratio (100 mg/kg)” value in the data set on scPTZ-induced seizures was 2/4. Also, the “LDH Inhibition Ratio (0.1 mM)” value with LDH enzyme is 42.6 ± 7.3%. For the same compound, the TD50 at 30 min in data set [2] was 358 mg/kg.

Regarding `COc1cc(/C=C/C(=O)N2CCN(C(=O)CCC(=O)N3CCN(c4nsc5ccccc45)CC3)CC2)cc(OC)c1OC` [B10, (E)-1-(4-(benzo[d]isothiazol-3-yl)piperazin-1-yl)-4-(4-(3-(3,4,5-trimethoxyphenyl)acryloyl)piperazin-1-yl)butane-1,4-dione], the responders at 100 mg/kg in data set [1] (setting [3]) is 75%; in data set [1] (setting [4]), 75%; in data set [1] (setting [5]), 25%; in data set [1] (setting [6]) it was 0%.

Turning to `COc1cc(/C=C/C(=O)N2CCN(CCCC(=O)O[C@H]3C[C@H]4CC[C@]3(C)C4(C)C)CC2)cc(OC)c1OC` (relative stereo) [A7, rel-(1R,2S,4R)-1,7,7-trimethylbicyclo [2.2.1]heptan-2-yl 4-(4-((E)-3-(3,4,5-trimethoxyphenyl)acryloyl)piperazin-1-yl)butanoate], the responders at 100 mg/kg in data set [1] (setting [3]) is 75%; in data set [1] (setting [4]), 50%; in data set [1] (setting [5]), 25%; in data set [1] (setting [6]) it was 0%.

On to `COc1cc(/C=C/C(=O)N2CCN(CCCC(=O)N3CCN(C(c4ccccc4)c4ccccc4)CC3)CC2)cc(OC)c1OC` [A8, (E)-1-(4-benzhydrylpiperazin-1-yl)-4-(4-(3-(3,4,5-trimethoxyphenyl)acryloyl)piperazin-1-yl)butan-1-one], for which the responders at 100 mg/kg is 75% in data set [1] (setting [3]), 50% in data set [1] (setting [4]), 25% in data set [1] (setting [5]) and 0% in data set [1] (setting [6]).

As for `C=CCc1ccccc1OC(=O)CCCN1CCN(C(=O)/C=C/c2cc(OC)c(OC)c(OC)c2)CC1` [A4, 2-allylphenyl (E)-4-(4-(3-(3,4,5-trimethoxyphenyl)acryloyl)piperazin-1-yl)butanoate], the responders at 100 mg/kg in data set [1] (setting [3]) is 50%; in data set [1] (setting [4]), 50%; in data set [1] (setting [5]), 25%; in data set [1] (setting [6]) it was 0%.

With `C/C=C/c1ccc(OC(=O)CCC(=O)N2CCN(C(=O)/C=C/c3cc(OC)c(OC)c(OC)c3)CC2)c(OC)c1` [B3, 2-methoxy-4-((E)-prop-1-en-1-yl)phenyl 4-oxo-4-(4-((E)-3-(3,4,5-trimethoxyphenyl)acryloyl)piperazin-1-yl)butanoate], the responders at 100 mg/kg in data set [1] (setting [3]) was 75%; in data set [1] (setting [4]) it was 75%; in data set [1] (setting [5]), 25%; in data set [1] (setting [6]) it was 0%.

Regarding `COc1cc(/C=C/C(=O)N2CCN(CCCC(=O)N3CCN(c4cccc(Cl)c4Cl)CC3)CC2)cc(OC)c1OC` [A12, (E)-1-(4-(2,3-dichlorophenyl)piperazin-1-yl)-4-(4-(3-(3,4,5-trimethoxyphenyl)acryloyl)piperazin-1-yl)butan-1-one], the responders at 100 mg/kg in data set [1] (setting [3]) was 100%; in data set [1] (setting [4]) it was 75%; in data set [1] (setting [5]) it was 75%; in data set [1] (setting [6]), 25%. Also, the ED50 in data set [1] worked out at 54.7 mg/kg. Also, in the data set with scPTZ-induced seizures, the “SCPTZ Latent Time (100 mg/kg, s)” value is given as 161.5 ± 24.0 s. Also, in the data set on scPTZ-induced seizures, the “SCPTZ Protective Ratio (100 mg/kg)” value was 0/4. In addition, the “LDH Inhibition Ratio (0.1 mM)” value in the data set with LDH enzyme turned out to be 41.9 ± 9.2%. The TD50 at 30 min in data set [2] is 284 mg/kg.

On to `COc1cc(/C=C/C(=O)N2CCN(CCCC(=O)O)CC2)cc(OC)c1OC` [A1], for which the responders at 100 mg/kg is 25% in data set [1] (setting [3]), 25% in data set [1] (setting [4]), 0% in data set [1] (setting [5]) and 0% in data set [1] (setting [6]).

As for `COc1cc(/C=C/C(=O)N2CCN(C(=O)CCC(=O)N3CCN(c4cccc(Cl)c4Cl)CC3)CC2)cc(OC)c1OC` [B12, (E)-1-(4-(2,3-dichlorophenyl)piperazin-1-yl)-4-(4-(3-(3,4,5-trimethoxyphenyl)acryloyl)piperazin-1-yl)butane-1,4-dione], the responders at 100 mg/kg in data set [1] (setting [3]) was 100%; in data set [1] (setting [4]), 75%; in data set [1] (setting [5]) it was 25%; in data set [1] (setting [6]), 25%. In data set [1], the ED50 is 60.3 mg/kg. The “SCPTZ Latent Time (100 mg/kg, s)” value in the data set on scPTZ-induced seizures is listed as 230.3 ± 17.4 s. For the same compound, the “SCPTZ Protective Ratio (100 mg/kg)” value with scPTZ-induced seizures was 1/4. Moreover, the “LDH Inhibition Ratio (0.1 mM)” value with LDH enzyme was 44.3 ± 6.5%. For the same compound, in data set [2], the TD50 at 30 min turned out to be 417 mg/kg.

Turning to `COc1cc(/C=C/C(=O)N2CCN(CCCC(=O)N3CCN(C(c4ccc(F)cc4)c4ccc(F)cc4)CC3)CC2)cc(OC)c1OC` [A9, (E)-1-(4-(bis(4-fluorophenyl)methyl)piperazin-1-yl)-4-(4-(3-(3,4,5-trimethoxyphenyl)acryloyl)piperazin-1-yl)butan-1-one], the responders at 100 mg/kg in data set [1] (setting [3]) was 100%; in data set [1] (setting [4]), 75%; in data set [1] (setting [5]), 50%; in data set [1] (setting [6]) it was 0%. Also, the ED50 in data set [1] amounted to 37.5 mg/kg. Further, in the data set with scPTZ-induced seizures, the “SCPTZ Latent Time (100 mg/kg, s)” value stood at 204.5 ± 12.6 s. For the same compound, in the data set with scPTZ-induced seizures, the “SCPTZ Protective Ratio (100 mg/kg)” value is listed as 1/4. The TD50 at 30 min in data set [2] amounted to 305 mg/kg.

For `COc1cc(/C=C/C(=O)N2CCN(C(=O)CCC(=O)N3CCN(C(c4ccccc4)c4ccccc4)CC3)CC2)cc(OC)c1OC` [B8, (E)-1-(4-benzhydrylpiperazin-1-yl)-4-(4-(3-(3,4,5-trimethoxyphenyl)acryloyl)piperazin-1-yl)butane-1,4-dione], the responders at 100 mg/kg in data set [1] (setting [3]) is 75%; in data set [1] (setting [4]) it was 75%; in data set [1] (setting [5]), 25%; in data set [1] (setting [6]), 0%.
